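Assay format: 96-well plates, 48-hour exposure. TGI marks complete inhibition of growth.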
Experiments:
Experiment in all cases: growth of human tumour cells (NCI), 48 h
[1] = tested on: 786-0 renal
[2] = tested on: A498 renal
[3] = tested on: A549 NSCLC
[4] = tested on: ACHN renal
[5] = tested on: BT-549 breast
[6] = tested on: CAKI-1 renal
[7] = tested on: CCRF-CEM leukemia
[8] = tested on: COLO 205 colon
[9] = tested on: DU-145 prostate
[10] = tested on: EKVX NSCLC
[11] = tested on: HCC-2998 colon
[12] = tested on: HCT-116 colon
[13] = tested on: HCT-15 colon
[14] = tested on: HL-60(TB) leukemia
[15] = tested on: HOP-62 NSCLC
[16] = tested on: HOP-92 NSCLC
[17] = tested on: HS 578T breast
[18] = tested on: HT29 colon
[19] = tested on: IGROV1 ovarian
[20] = tested on: K-562 leukemia
[21] = tested on: KM12 colon
[22] = tested on: LOX IMVI melanoma
[23] = tested on: M14 melanoma
[24] = tested on: MALME-3M melanoma
[25] = tested on: MCF7 breast
[26] = tested on: MDA-MB-231 breast
[27] = tested on: MDA-MB-435
[28] = tested on: MDA-N
[29] = tested on: MOLT-4 leukemia
[30] = tested on: NCI-H226 lung
[31] = tested on: NCI-H23 lung
[32] = tested on: NCI-H460 lung
[33] = tested on: NCI-H522 lung
[34] = tested on: NCI/ADR-RES ovarian
[35] = tested on: OVCAR-3 ovarian
[36] = tested on: OVCAR-4 ovarian
[37] = tested on: OVCAR-5 ovarian
[38] = tested on: OVCAR-8 ovarian
[39] = tested on: PC-3 prostate
[40] = tested on: RPMI-8226 leukemia
[41] = tested on: RXF 393 renal
[42] = tested on: SF-268 CNS
[43] = tested on: SF-295 CNS
[44] = tested on: SF-539 CNS
[45] = tested on: SK-MEL-2 melanoma
[46] = tested on: SK-MEL-28 melanoma
[47] = tested on: SK-MEL-5 melanoma
[48] = tested on: SK-OV-3 ovarian
[49] = tested on: SN12C renal
[50] = tested on: SNB-19 CNS
[51] = tested on: SNB-75 CNS
[52] = tested on: SR leukemia
[53] = tested on: SW-620 colon
[54] = tested on: T-47D breast
[55] = tested on: TK-10 renal
[56] = tested on: U251 CNS
[57] = tested on: UACC-257 melanoma
[58] = tested on: UACC-62 melanoma
[59] = tested on: UO-31 renal

In the case of `O=C1Nc2ccc(Br)cc2C1=Nc1ccc2c(c1)OCO2`, the TGI [1] is reported as 48.2 µM, the TGI [2] is reported as 97.3 µM and the TGI [3] is reported as greater than 100 µM. For the same compound, the TGI [4] was 68.7 µM, the TGI [5] was 50.5 µM and the TGI [6] was 64.5 µM. The TGI [7] was 55.3 µM, the TGI [8] was 31.9 µM and the TGI [9] was greater than 100 µM. The TGI [10] was 74.8 µM, the TGI [11] was 30 µM and the TGI [12] was 33.6 µM. For the same compound, the TGI [13] was 53.4 µM, the TGI [14] was 43.6 µM and the TGI [15] was 44.5 µM. For the same compound, the TGI [16] was greater than 100 µM, the TGI [17] was 98.7 µM and the TGI [18] was 39.1 µM. It also gave a TGI [19] greater than 100 µM, a TGI [20] of 61.6 µM and a TGI [21] of 44.5 µM. The TGI [22] was 64.9 µM, the TGI [23] was 40.6 µM and the TGI [24] was 35.6 µM. The TGI [25] was 37 µM, the TGI [26] was 39.2 µM and the TGI [27] was 22.4 µM. The TGI [28] was 30.4 µM, the TGI [29] was 50.2 µM and the TGI [30] was 60.8 µM. The TGI [31] was greater than 100 µM, the TGI [32] was 67.9 µM and the TGI [33] was 43 µM. It also gave a TGI [34] of 85.8 µM, a TGI [35] of 61.8 µM and a TGI [36] of 17.1 µM. It also gave a TGI [37] of 51.9 µM, a TGI [38] greater than 100 µM and a TGI [39] of 33.6 µM. The TGI [40] was 63.2 µM, the TGI [41] was 38.9 µM and the TGI [42] was greater than 100 µM. For the same compound, the TGI [43] was 78.7 µM, the TGI [44] was 37.3 µM and the TGI [45] was 35.3 µM. The TGI [46] was greater than 100 µM, the TGI [47] was 30 µM and the TGI [48] was greater than 100 µM. It also gave a TGI [49] of 34.4 µM, a TGI [50] greater than 100 µM and a TGI [51] of 98.4 µM. It also gave a TGI [52] of 73.5 µM, a TGI [53] of 74.1 µM and a TGI [54] greater than 100 µM. For the same compound, the TGI [55] was 59.6 µM, the TGI [56] was 25.3 µM and the TGI [57] was 34.8 µM. The TGI [58] was 29.1 µM and the TGI [59] was 44.1 µM.

`c1ccc2c(c1)CN1CCCC1CN2` (stereo not drawn) showed a TGI [1] greater than 100 µM, a TGI [2] greater than 100 µM and a TGI [3] greater than 100 µM. The TGI [4] was greater than 100 µM, the TGI [5] was greater than 100 µM and the TGI [6] was greater than 100 µM. For the same compound, the TGI [7] was greater than 100 µM, the TGI [8] was greater than 100 µM and the TGI [9] was greater than 100 µM. It also gave a TGI [10] greater than 100 µM, a TGI [11] greater than 100 µM and a TGI [12] greater than 100 µM. The TGI [13] was greater than 100 µM, the TGI [14] was greater than 100 µM and the TGI [15] was greater than 100 µM. For the same compound, the TGI [16] was greater than 100 µM, the TGI [17] was greater than 100 µM and the TGI [18] was greater than 100 µM. The TGI [19] was greater than 100 µM, the TGI [20] was greater than 100 µM and the TGI [21] was greater than 100 µM. For the same compound, the TGI [22] was greater than 100 µM, the TGI [23] was greater than 100 µM and the TGI [24] was greater than 100 µM. For the same compound, the TGI [25] was greater than 100 µM, the TGI [26] was greater than 100 µM and the TGI [27] was greater than 100 µM. The TGI [28] was greater than 100 µM, the TGI [29] was greater than 100 µM and the TGI [30] was greater than 100 µM. For the same compound, the TGI [31] was greater than 100 µM, the TGI [32] was greater than 100 µM and the TGI [33] was greater than 100 µM. For the same compound, the TGI [34] was greater than 100 µM, the TGI [35] was greater than 100 µM and the TGI [36] was greater than 100 µM. The TGI [37] was greater than 100 µM, the TGI [38] was greater than 100 µM and the TGI [39] was greater than 100 µM. For the same compound, the TGI [40] was greater than 100 µM, the TGI [41] was greater than 100 µM and the TGI [42] was greater than 100 µM. The TGI [43] was greater than 100 µM, the TGI [44] was greater than 100 µM and the TGI [45] was greater than 100 µM. The TGI [46] was greater than 100 µM, the TGI [47] was greater than 100 µM and the TGI [48] was greater than 100 µM. The TGI [49] was greater than 100 µM, the TGI [50] was greater than 100 µM and the TGI [51] was greater than 100 µM. For the same compound, the TGI [52] was greater than 100 µM, the TGI [53] was greater than 100 µM and the TGI [54] was greater than 100 µM. The TGI [55] was greater than 100 µM, the TGI [56] was greater than 100 µM and the TGI [57] was greater than 100 µM. The TGI [58] was greater than 100 µM and the TGI [59] was greater than 100 µM.

Source: PubChem BioAssay (NCI)
